Data published in ChEMBL document CHEMBL1697731, “Cheminformatics analysis of assertions mined from literature that describe drug-induced liver injury in different species” (Chem Res Toxicol, 2010).

Tests used:
Hepatotoxicity [1] = assay: Literature-mined compound from Fourches et al multi-species drug-induced liver injury (DILI) dataset, effect in non-rodents
Hepatotoxicity [2] = assay: Literature-mined compound from Fourches et al multi-species drug-induced liver injury (DILI) dataset, effect in humans; conditions: human
Hepatotoxicity [3] = assay: Literature-mined compound from Fourches et al multi-species drug-induced liver injury (DILI) dataset, effect in rodents; conditions: rodentia

CCOC(=O)n1ccn(C)c1=S [CARBIMAZOLE]
Hepatotoxicity (Hepatotoxicity [1]): no drug-induced liver injury reported
Hepatotoxicity (Hepatotoxicity [2]): drug-induced liver injury reported
Hepatotoxicity (Hepatotoxicity [3]): no drug-induced liver injury reported

CCCCNC(=O)NS(=O)(=O)c1ccc(N)cc1 [CARBUTAMIDE]
Hepatotoxicity (Hepatotoxicity [1]): no drug-induced liver injury reported
Hepatotoxicity (Hepatotoxicity [2]): no drug-induced liver injury reported
Hepatotoxicity (Hepatotoxicity [3]): drug-induced liver injury reported

CC(C)c1ccc(C(=O)NC(=N)N)cc1S(C)(=O)=O [CARIPORIDE]
Hepatotoxicity (Hepatotoxicity [1]): no drug-induced liver injury reported
Hepatotoxicity (Hepatotoxicity [2]): no drug-induced liver injury reported
Hepatotoxicity (Hepatotoxicity [3]): drug-induced liver injury reported

CCCC(C)(COC(N)=O)COC(=O)NC(C)C (stereo unspecified) [CARISOPRODOL]
Hepatotoxicity (Hepatotoxicity [1]): no drug-induced liver injury reported
Hepatotoxicity (Hepatotoxicity [2]): no drug-induced liver injury reported
Hepatotoxicity (Hepatotoxicity [3]): drug-induced liver injury reported

O=NN(CCCl)C(=O)NCCCl [CARMUSTINE]
Hepatotoxicity (Hepatotoxicity [1]): no drug-induced liver injury reported
Hepatotoxicity (Hepatotoxicity [2]): drug-induced liver injury reported
Hepatotoxicity (Hepatotoxicity [3]): drug-induced liver injury reported

C[N+](C)(C)CC(O)CC(=O)[O-] (stereo unspecified) [CARNITINE]
Hepatotoxicity (Hepatotoxicity [1]): drug-induced liver injury reported
Hepatotoxicity (Hepatotoxicity [2]): drug-induced liver injury reported
Hepatotoxicity (Hepatotoxicity [3]): drug-induced liver injury reported

CC(C(=O)O)c1ccc2c(c1)[nH]c1ccc(Cl)cc12 (stereo unspecified) [CARPROFEN]
Hepatotoxicity (Hepatotoxicity [1]): drug-induced liver injury reported
Hepatotoxicity (Hepatotoxicity [2]): no drug-induced liver injury reported
Hepatotoxicity (Hepatotoxicity [3]): no drug-induced liver injury reported

COc1ccccc1OCCNCC(O)COc1cccc2[nH]c3ccccc3c12 (stereo unspecified) [CARVEDILOL]
Hepatotoxicity (Hepatotoxicity [1]): no drug-induced liver injury reported
Hepatotoxicity (Hepatotoxicity [2]): drug-induced liver injury reported
Hepatotoxicity (Hepatotoxicity [3]): drug-induced liver injury reported

Oc1cc(O)c2c(c1)O[C@H](c1ccc(O)c(O)c1)[C@@H](O)C2 [CATECHIN]
Hepatotoxicity (Hepatotoxicity [1]): drug-induced liver injury reported
Hepatotoxicity (Hepatotoxicity [2]): drug-induced liver injury reported
Hepatotoxicity (Hepatotoxicity [3]): drug-induced liver injury reported

N[C@@H](C(=O)N[C@@H]1C(=O)N2C(C(=O)O)=C(Cl)CS[C@H]12)c1ccccc1 [CEFACLOR ANHYDROUS]
Hepatotoxicity (Hepatotoxicity [1]): no drug-induced liver injury reported
Hepatotoxicity (Hepatotoxicity [2]): drug-induced liver injury reported
Hepatotoxicity (Hepatotoxicity [3]): no drug-induced liver injury reported

CC1=C(C(=O)O)N2C(=O)[C@@H](NC(=O)[C@H](N)c3ccc(O)cc3)[C@H]2SC1 [CEFADROXIL]
Hepatotoxicity (Hepatotoxicity [1]): no drug-induced liver injury reported
Hepatotoxicity (Hepatotoxicity [2]): drug-induced liver injury reported
Hepatotoxicity (Hepatotoxicity [3]): no drug-induced liver injury reported

Cc1nnc(SCC2=C(C(=O)O)N3C(=O)[C@@H](NC(=O)Cn4cnnn4)[C@H]3SC2)s1 [CEFAZOLIN]
Hepatotoxicity (Hepatotoxicity [1]): no drug-induced liver injury reported
Hepatotoxicity (Hepatotoxicity [2]): drug-induced liver injury reported
Hepatotoxicity (Hepatotoxicity [3]): drug-induced liver injury reported

C=CC1=C(C(=O)O)N2C(=O)[C@@H](NC(=O)/C(=N\OCC(=O)O)c3csc(N)n3)[C@H]2SC1 [CEFIXIME]
Hepatotoxicity (Hepatotoxicity [1]): no drug-induced liver injury reported
Hepatotoxicity (Hepatotoxicity [2]): drug-induced liver injury reported
Hepatotoxicity (Hepatotoxicity [3]): no drug-induced liver injury reported

CCN1CCN(C(=O)N[C@@H](C(=O)N[C@@H]2C(=O)N3C(C(=O)O)=C(CSc4nnnn4C)CS[C@H]23)c2ccc(O)cc2)C(=O)C1=O [CEFOPERAZONE]
Hepatotoxicity (Hepatotoxicity [1]): no drug-induced liver injury reported
Hepatotoxicity (Hepatotoxicity [2]): drug-induced liver injury reported
Hepatotoxicity (Hepatotoxicity [3]): drug-induced liver injury reported

CO/N=C(\C(=O)N[C@@H]1C(=O)N2C(C(=O)O)=C(COC(C)=O)CS[C@H]12)c1csc(N)n1 [CEFOTAXIME]
Hepatotoxicity (Hepatotoxicity [1]): no drug-induced liver injury reported
Hepatotoxicity (Hepatotoxicity [2]): drug-induced liver injury reported
Hepatotoxicity (Hepatotoxicity [3]): no drug-induced liver injury reported

CO[C@@]1(NC(=O)C2SC(=C(C(N)=O)C(=O)O)S2)C(=O)N2C(C(=O)O)=C(CSc3nnnn3C)CS[C@@H]21 (stereo partly specified) [CEFOTETAN]
Hepatotoxicity (Hepatotoxicity [1]): no drug-induced liver injury reported
Hepatotoxicity (Hepatotoxicity [2]): drug-induced liver injury reported
Hepatotoxicity (Hepatotoxicity [3]): no drug-induced liver injury reported

CC=CC1=C(C(=O)O)N2C(=O)[C@@H](NC(=O)[C@H](N)c3ccc(O)cc3)[C@H]2SC1 [CEFPROZIL]
Hepatotoxicity (Hepatotoxicity [1]): no drug-induced liver injury reported
Hepatotoxicity (Hepatotoxicity [2]): drug-induced liver injury reported
Hepatotoxicity (Hepatotoxicity [3]): no drug-induced liver injury reported

CO/N=C(\C(=O)N[C@@H]1C(=O)N2C(C(=O)O)=C(CSc3nc(=O)c(=O)[nH]n3C)CS[C@H]12)c1csc(N)n1 [CEFTRIAXONE]
Hepatotoxicity (Hepatotoxicity [1]): drug-induced liver injury reported
Hepatotoxicity (Hepatotoxicity [2]): drug-induced liver injury reported
Hepatotoxicity (Hepatotoxicity [3]): drug-induced liver injury reported

Cc1ccc(-c2cc(C(F)(F)F)nn2-c2ccc(S(N)(=O)=O)cc2)cc1 [CELECOXIB]
Hepatotoxicity (Hepatotoxicity [1]; Liver): no drug-induced liver injury reported
Hepatotoxicity (Hepatotoxicity [2]; Liver): drug-induced liver injury reported
Hepatotoxicity (Hepatotoxicity [3]; Liver): drug-induced liver injury reported

O=C(Cc1cccs1)N[C@@H]1C(=O)N2C(C(=O)[O-])=C(C[n+]3ccccc3)CS[C@H]12 [CEPHALORIDINE]
Hepatotoxicity (Hepatotoxicity [1]): no drug-induced liver injury reported
Hepatotoxicity (Hepatotoxicity [2]): drug-induced liver injury reported
Hepatotoxicity (Hepatotoxicity [3]): no drug-induced liver injury reported

CC(=O)OCC1=C(C(=O)O)N2C(=O)[C@@H](NC(=O)Cc3cccs3)[C@H]2SC1 [CEPHALOTHIN]
Hepatotoxicity (Hepatotoxicity [1]): no drug-induced liver injury reported
Hepatotoxicity (Hepatotoxicity [2]): drug-induced liver injury reported
Hepatotoxicity (Hepatotoxicity [3]): no drug-induced liver injury reported

COCc1c(C(C)C)nc(C(C)C)c(/C=C/[C@@H](O)C[C@@H](O)CC(=O)[O-])c1-c1ccc(F)cc1.[Na+] [CERIVASTATIN SODIUM]
Hepatotoxicity (Hepatotoxicity [1]): drug-induced liver injury reported
Hepatotoxicity (Hepatotoxicity [2]): no drug-induced liver injury reported
Hepatotoxicity (Hepatotoxicity [3]): drug-induced liver injury reported

COCc1c(C(C)C)nc(C(C)C)c(/C=C/[C@@H](O)C[C@@H](O)CC(=O)O)c1-c1ccc(F)cc1 [CERIVASTATIN]
Hepatotoxicity (Hepatotoxicity [1]): drug-induced liver injury reported
Hepatotoxicity (Hepatotoxicity [2]): drug-induced liver injury reported
Hepatotoxicity (Hepatotoxicity [3]): drug-induced liver injury reported

O=C(O)COCCN1CCN(C(c2ccccc2)c2ccc(Cl)cc2)CC1 (stereo unspecified) [CETIRIZINE]
Hepatotoxicity (Hepatotoxicity [1]; Liver): no drug-induced liver injury reported
Hepatotoxicity (Hepatotoxicity [2]; Liver): drug-induced liver injury reported
Hepatotoxicity (Hepatotoxicity [3]; Liver): no drug-induced liver injury reported

C[C@H](CCC(=O)O)[C@H]1CC[C@H]2[C@@H]3[C@H](O)C[C@@H]4C[C@H](O)CC[C@]4(C)[C@H]3CC[C@]12C [CHENODIOL]
Hepatotoxicity (Hepatotoxicity [1]): drug-induced liver injury reported
Hepatotoxicity (Hepatotoxicity [2]): drug-induced liver injury reported
Hepatotoxicity (Hepatotoxicity [3]): drug-induced liver injury reported

OC(O)C(Cl)(Cl)Cl [CHLORAL HYDRATE]
Hepatotoxicity (Hepatotoxicity [1]; Liver): no drug-induced liver injury reported
Hepatotoxicity (Hepatotoxicity [2]; Liver): drug-induced liver injury reported
Hepatotoxicity (Hepatotoxicity [3]; Liver): drug-induced liver injury reported

O=C(O)CCCc1ccc(N(CCCl)CCCl)cc1 [CHLORAMBUCIL]
Hepatotoxicity (Hepatotoxicity [1]): no drug-induced liver injury reported
Hepatotoxicity (Hepatotoxicity [2]): drug-induced liver injury reported
Hepatotoxicity (Hepatotoxicity [3]): drug-induced liver injury reported

Cc1ccc(S(=O)(=O)[N-]Cl)cc1.[Na+] [CHLORAMINE-T ANHYDROUS]
Hepatotoxicity (Hepatotoxicity [1]): drug-induced liver injury reported
Hepatotoxicity (Hepatotoxicity [2]): no drug-induced liver injury reported
Hepatotoxicity (Hepatotoxicity [3]): drug-induced liver injury reported

O=C(N[C@H](CO)[C@H](O)c1ccc([N+](=O)[O-])cc1)C(Cl)Cl [CHLORAMPHENICOL]
Hepatotoxicity (Hepatotoxicity [1]): no drug-induced liver injury reported
Hepatotoxicity (Hepatotoxicity [2]): drug-induced liver injury reported
Hepatotoxicity (Hepatotoxicity [3]): drug-induced liver injury reported

CNC1=Nc2ccc(Cl)cc2C(c2ccccc2)=[N+]([O-])C1 [CHLORDIAZEPOXIDE]
Hepatotoxicity (Hepatotoxicity [1]): no drug-induced liver injury reported
Hepatotoxicity (Hepatotoxicity [2]): no drug-induced liver injury reported
Hepatotoxicity (Hepatotoxicity [3]): drug-induced liver injury reported

CC(=O)O[C@]1(C(C)=O)CC[C@H]2[C@@H]3C=C(Cl)C4=CC(=O)CC[C@]4(C)[C@H]3CC[C@@]21C [CHLORMADINONE ACETATE]
Hepatotoxicity (Hepatotoxicity [1]): drug-induced liver injury reported
Hepatotoxicity (Hepatotoxicity [2]): drug-induced liver injury reported
Hepatotoxicity (Hepatotoxicity [3]): drug-induced liver injury reported

CN1C(=O)CCS(=O)(=O)C1c1ccc(Cl)cc1 (stereo unspecified) [CHLORMEZANONE]
Hepatotoxicity (Hepatotoxicity [1]): no drug-induced liver injury reported
Hepatotoxicity (Hepatotoxicity [2]): drug-induced liver injury reported
Hepatotoxicity (Hepatotoxicity [3]): no drug-induced liver injury reported

Clc1ccc(C(c2ccc(Cl)cc2)C(Cl)(Cl)Cl)cc1 [CHLOROPHENOTHANE]
Hepatotoxicity (Hepatotoxicity [1]): no drug-induced liver injury reported
Hepatotoxicity (Hepatotoxicity [2]): no drug-induced liver injury reported
Hepatotoxicity (Hepatotoxicity [3]): drug-induced liver injury reported

CCN(CC)CCCC(C)Nc1ccnc2cc(Cl)ccc12 (stereo unspecified) [CHLOROQUINE]
Hepatotoxicity (Hepatotoxicity [1]): drug-induced liver injury reported
Hepatotoxicity (Hepatotoxicity [2]): drug-induced liver injury reported
Hepatotoxicity (Hepatotoxicity [3]): drug-induced liver injury reported

Cc1cc(O)cc(C)c1Cl [CHLOROXYLENOL]
Hepatotoxicity (Hepatotoxicity [1]): no drug-induced liver injury reported
Hepatotoxicity (Hepatotoxicity [2]): no drug-induced liver injury reported
Hepatotoxicity (Hepatotoxicity [3]): drug-induced liver injury reported

CN(C)CCC(c1ccc(Cl)cc1)c1ccccn1 (stereo unspecified) [CHLORPHENIRAMINE]
Hepatotoxicity (Hepatotoxicity [1]): no drug-induced liver injury reported
Hepatotoxicity (Hepatotoxicity [2]): drug-induced liver injury reported
Hepatotoxicity (Hepatotoxicity [3]): no drug-induced liver injury reported

CN(C)CCCN1c2ccccc2Sc2ccc(Cl)cc21 [CHLORPROMAZINE]
Hepatotoxicity (Hepatotoxicity [1]): drug-induced liver injury reported
Hepatotoxicity (Hepatotoxicity [2]): drug-induced liver injury reported
Hepatotoxicity (Hepatotoxicity [3]): drug-induced liver injury reported
